Activity calls are given as the source filed them. The calls are words filed in the database; no cut-off is given here.
What was measured:
[1] = target: Platelet-derived growth factor receptor beta (Homo sapiens, UniProt P09619); experiment: Inhibition of human recombinant PDGFRbeta expressed in insect cells after 30 mins
[2] = target: Mast/stem cell growth factor receptor Kit (Homo sapiens, UniProt P10721); experiment: Inhibition of human recombinant c-kit kinase in cell free system after 30 mins
Mast/stem cell growth factor receptor Kit, sequence (P10721 whole entry): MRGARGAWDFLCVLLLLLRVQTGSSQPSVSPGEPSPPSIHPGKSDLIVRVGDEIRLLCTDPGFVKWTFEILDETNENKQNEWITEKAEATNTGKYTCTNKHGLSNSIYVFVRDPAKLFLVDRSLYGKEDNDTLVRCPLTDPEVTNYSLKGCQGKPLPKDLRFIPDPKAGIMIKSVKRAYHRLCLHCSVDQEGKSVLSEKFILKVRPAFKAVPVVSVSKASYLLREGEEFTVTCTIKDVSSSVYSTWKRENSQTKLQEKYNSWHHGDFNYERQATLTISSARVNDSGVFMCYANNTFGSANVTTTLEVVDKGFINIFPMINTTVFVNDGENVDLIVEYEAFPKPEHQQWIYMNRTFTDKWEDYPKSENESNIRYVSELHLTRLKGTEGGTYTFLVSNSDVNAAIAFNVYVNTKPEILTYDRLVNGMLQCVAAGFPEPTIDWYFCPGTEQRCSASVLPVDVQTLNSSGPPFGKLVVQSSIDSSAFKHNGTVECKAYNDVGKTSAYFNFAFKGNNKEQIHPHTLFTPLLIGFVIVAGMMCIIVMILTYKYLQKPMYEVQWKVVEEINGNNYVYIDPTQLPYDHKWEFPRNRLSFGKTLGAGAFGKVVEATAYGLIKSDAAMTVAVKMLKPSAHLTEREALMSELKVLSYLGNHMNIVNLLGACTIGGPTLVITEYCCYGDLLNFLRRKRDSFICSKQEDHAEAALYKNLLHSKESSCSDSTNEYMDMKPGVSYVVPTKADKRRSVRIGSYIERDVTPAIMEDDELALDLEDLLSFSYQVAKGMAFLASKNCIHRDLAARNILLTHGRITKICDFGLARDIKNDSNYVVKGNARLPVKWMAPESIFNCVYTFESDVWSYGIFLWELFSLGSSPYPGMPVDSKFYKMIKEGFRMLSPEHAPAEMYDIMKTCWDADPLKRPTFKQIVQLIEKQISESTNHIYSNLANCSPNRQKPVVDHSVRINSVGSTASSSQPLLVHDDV

[3] = target: Vascular endothelial growth factor receptor 2 (Homo sapiens, UniProt P35968); experiment: Inhibition of human recombinant VEGFR2 expressed in Sf9 cells after 60 mins
Jurkat [4] = experiment: Antiproliferative activity against human Jurkat cells after 24 hrs by celltiter glo assay
Jurkat [5] = experiment: Antiproliferative activity against human Jurkat cells after 48 hrs by celltiter glo assay
[6] = target: Vascular endothelial growth factor receptor 3 (Homo sapiens, UniProt P35916); experiment: Inhibition of human recombinant VEGFR3 in cell free system after 90 mins
HUVEC [7] = experiment: Antiangiogenic activity against HUVEC co-cultured with vascular smooth muscle cells assessed as inhibition of organotypic capillary network formation at 33 uM after 72 hrs; type: functional, cell-based; conditions: Homo sapiens
HUVEC [8] = experiment: Antiangiogenic activity against HUVEC co-cultured with vascular smooth muscle cells assessed as inhibition of tube formation at 33 uM after 72 hrs; type: functional, cell-based; conditions: Homo sapiens
[9] = target: Vascular endothelial growth factor receptor 1 (Homo sapiens, UniProt P17948); experiment: Inhibition of human recombinant VEGFR1 expressed in Sf9 cells after 10 mins
Vascular endothelial growth factor receptor 1, sequence (P17948 whole entry): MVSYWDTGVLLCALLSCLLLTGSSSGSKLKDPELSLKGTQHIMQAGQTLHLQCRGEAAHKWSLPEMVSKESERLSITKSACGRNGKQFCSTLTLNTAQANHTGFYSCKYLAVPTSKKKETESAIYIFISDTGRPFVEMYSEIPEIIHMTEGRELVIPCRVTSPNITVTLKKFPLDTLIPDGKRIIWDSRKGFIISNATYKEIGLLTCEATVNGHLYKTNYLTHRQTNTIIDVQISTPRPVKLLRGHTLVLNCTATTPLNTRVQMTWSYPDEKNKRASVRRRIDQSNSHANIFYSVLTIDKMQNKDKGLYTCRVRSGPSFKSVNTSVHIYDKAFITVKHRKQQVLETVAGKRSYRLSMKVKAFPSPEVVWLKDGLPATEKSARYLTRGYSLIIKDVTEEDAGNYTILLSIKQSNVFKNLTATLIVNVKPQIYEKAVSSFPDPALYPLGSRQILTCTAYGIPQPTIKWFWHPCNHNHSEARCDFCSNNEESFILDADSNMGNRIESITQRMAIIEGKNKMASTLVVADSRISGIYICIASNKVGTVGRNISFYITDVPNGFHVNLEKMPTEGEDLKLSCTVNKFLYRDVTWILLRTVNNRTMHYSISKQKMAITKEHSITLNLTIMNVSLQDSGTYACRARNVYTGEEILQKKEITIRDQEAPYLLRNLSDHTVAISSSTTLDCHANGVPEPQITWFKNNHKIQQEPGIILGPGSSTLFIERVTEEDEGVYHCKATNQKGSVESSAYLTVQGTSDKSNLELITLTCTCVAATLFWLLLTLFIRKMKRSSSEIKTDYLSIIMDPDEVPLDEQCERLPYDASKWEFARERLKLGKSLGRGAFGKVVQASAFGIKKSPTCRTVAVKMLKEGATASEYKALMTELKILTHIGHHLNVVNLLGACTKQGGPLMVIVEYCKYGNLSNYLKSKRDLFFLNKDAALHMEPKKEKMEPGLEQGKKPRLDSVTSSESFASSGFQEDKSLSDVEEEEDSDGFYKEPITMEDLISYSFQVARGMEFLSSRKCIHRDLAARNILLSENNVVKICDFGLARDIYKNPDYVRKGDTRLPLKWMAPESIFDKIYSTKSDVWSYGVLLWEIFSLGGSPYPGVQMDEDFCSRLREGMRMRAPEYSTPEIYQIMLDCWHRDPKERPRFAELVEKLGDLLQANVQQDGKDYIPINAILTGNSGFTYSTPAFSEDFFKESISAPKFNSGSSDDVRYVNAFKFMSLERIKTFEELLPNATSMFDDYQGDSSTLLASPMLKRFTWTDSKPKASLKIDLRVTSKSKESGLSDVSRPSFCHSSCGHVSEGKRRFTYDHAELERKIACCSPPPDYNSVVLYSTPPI

[10] = target: Platelet-derived growth factor receptor alpha (Homo sapiens, UniProt P16234); experiment: Inhibition of human recombinant PDGFRalpha in cell free system after 60 mins
[11] = target: Mitogen-activated protein kinase 3 (Homo sapiens, UniProt P27361); experiment: Inhibition of human recombinant ERK1 expressed in E.coli after 30 mins
Mitogen-activated protein kinase 3, sequence (P27361 whole entry): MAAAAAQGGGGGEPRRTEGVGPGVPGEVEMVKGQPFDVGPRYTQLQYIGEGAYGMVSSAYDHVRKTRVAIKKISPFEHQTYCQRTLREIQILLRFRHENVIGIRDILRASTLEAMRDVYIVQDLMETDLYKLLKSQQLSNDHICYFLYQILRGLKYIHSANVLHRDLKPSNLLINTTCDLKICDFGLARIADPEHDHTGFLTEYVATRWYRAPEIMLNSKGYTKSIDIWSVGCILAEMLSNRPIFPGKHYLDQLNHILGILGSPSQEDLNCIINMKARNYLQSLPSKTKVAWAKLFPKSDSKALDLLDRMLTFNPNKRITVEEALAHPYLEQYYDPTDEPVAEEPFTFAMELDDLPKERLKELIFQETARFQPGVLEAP

[12] = target: Mitogen-activated protein kinase 1 (Homo sapiens, UniProt P28482); experiment: Inhibition of human recombinant ERK2 expressed in E.coli after 15 mins
Mitogen-activated protein kinase 1, sequence (P28482 whole entry): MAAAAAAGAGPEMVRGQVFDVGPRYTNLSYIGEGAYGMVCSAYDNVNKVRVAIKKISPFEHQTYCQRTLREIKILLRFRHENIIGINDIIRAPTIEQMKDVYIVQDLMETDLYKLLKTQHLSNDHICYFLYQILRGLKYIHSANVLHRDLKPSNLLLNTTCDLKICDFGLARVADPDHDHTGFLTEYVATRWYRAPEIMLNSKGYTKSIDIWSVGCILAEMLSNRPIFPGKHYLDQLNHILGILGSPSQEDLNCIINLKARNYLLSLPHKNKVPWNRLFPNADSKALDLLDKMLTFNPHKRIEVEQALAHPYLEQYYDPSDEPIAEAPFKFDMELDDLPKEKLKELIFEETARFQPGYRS

[13] = target: T1, Receptor-type tyrosine-protein kinase FLT3 (Homo sapiens, UniProt P36888); experiment: Inhibition of human recombinant FLT-3 kinase expressed in insect cells after 90 mins
T1 sequence (P36888 whole entry): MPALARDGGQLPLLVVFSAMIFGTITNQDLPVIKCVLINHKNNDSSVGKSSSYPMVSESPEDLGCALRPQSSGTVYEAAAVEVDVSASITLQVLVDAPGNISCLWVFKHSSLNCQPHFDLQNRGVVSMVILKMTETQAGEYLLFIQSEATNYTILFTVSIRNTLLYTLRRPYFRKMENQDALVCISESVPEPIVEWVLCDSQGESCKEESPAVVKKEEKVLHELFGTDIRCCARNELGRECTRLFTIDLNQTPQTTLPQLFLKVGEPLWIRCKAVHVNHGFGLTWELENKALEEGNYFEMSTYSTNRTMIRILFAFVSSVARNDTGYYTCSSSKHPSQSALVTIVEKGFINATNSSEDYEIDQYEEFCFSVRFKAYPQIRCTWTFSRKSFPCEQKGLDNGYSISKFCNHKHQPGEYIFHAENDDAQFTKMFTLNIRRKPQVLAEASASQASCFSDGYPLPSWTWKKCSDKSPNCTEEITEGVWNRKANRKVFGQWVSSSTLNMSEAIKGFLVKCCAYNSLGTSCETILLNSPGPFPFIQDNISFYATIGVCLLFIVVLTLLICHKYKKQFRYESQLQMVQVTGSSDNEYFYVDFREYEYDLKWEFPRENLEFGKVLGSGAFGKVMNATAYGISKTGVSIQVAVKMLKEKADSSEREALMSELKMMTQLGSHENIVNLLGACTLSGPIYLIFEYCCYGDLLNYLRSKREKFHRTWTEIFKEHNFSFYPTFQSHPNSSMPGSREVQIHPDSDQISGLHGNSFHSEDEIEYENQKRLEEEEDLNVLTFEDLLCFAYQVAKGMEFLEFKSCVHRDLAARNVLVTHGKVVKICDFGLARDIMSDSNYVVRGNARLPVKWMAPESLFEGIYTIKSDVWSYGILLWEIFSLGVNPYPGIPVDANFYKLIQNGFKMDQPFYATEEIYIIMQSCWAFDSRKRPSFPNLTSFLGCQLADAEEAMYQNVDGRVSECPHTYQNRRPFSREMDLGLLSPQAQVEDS

[14] = target: Glycogen synthase kinase-3 alpha (Homo sapiens, UniProt P49840); experiment: Inhibition of human recombinant GSK3alpha in cell free system after 60 mins
Glycogen synthase kinase-3 alpha, sequence (P49840 whole entry): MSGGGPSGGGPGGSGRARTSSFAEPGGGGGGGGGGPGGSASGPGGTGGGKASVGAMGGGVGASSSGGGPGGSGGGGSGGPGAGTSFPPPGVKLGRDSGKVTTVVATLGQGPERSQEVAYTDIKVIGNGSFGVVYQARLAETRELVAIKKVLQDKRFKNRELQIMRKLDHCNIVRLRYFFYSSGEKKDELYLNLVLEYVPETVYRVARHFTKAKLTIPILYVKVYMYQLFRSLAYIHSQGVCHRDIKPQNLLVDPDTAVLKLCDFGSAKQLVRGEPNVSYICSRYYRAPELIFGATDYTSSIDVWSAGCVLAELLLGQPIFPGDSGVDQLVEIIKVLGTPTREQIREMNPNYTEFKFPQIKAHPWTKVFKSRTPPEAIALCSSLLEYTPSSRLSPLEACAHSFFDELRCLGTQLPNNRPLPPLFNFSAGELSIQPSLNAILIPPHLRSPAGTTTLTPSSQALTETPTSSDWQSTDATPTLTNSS

[15] = target: Glycogen synthase kinase-3 beta (Homo sapiens, UniProt P49841); experiment: Inhibition of human recombinant GSK3-beta in cell free system after 90 mins
[16] = target: Dual specificity mitogen-activated protein kinase kinase 1 (Homo sapiens, UniProt Q02750); experiment: Inhibition of human recombinant MEK1 expressed in insect cells after 20 mins
Dual specificity mitogen-activated protein kinase kinase 1, sequence (Q02750 whole entry): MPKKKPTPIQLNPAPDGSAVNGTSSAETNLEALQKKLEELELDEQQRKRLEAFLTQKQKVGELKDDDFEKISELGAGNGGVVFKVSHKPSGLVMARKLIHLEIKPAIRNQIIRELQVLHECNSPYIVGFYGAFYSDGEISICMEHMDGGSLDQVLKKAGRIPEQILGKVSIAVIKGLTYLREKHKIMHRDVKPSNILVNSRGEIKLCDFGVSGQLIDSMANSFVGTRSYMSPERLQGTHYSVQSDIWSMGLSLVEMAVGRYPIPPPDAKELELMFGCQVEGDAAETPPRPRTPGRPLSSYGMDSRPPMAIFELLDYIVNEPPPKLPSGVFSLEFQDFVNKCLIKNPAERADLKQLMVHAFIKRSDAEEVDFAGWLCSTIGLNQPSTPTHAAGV

[17] = target: Mitogen-activated protein kinase 7 (Homo sapiens, UniProt Q13164); experiment: Inhibition of human recombinant ERK5 in cell free system after 90 mins
HUVEC [18] = experiment: Antiangiogenic activity against HUVEC co-cultured with vascular smooth muscle cells assessed as inhibition of organotypic capillary network formation at 11 uM after 72 hrs; type: functional, cell-based; conditions: Homo sapiens
HUVEC [19] = experiment: Antiangiogenic activity against HUVEC co-cultured with vascular smooth muscle cells assessed as inhibition of tube formation at 11 uM after 72 hrs; type: functional, cell-based; conditions: Homo sapiens
HUVEC [20] = experiment: Antiangiogenic activity against HUVEC co-cultured with vascular smooth muscle cells assessed as inhibition of organotypic capillary network formation upto 100 uM after 72 hrs; type: functional, cell-based; conditions: Homo sapiens
HUVEC [21] = experiment: Antiangiogenic activity against HUVEC co-cultured with vascular smooth muscle cells assessed as inhibition of tube formation upto 100 uM after 72 hrs; type: functional, cell-based; conditions: Homo sapiens

Platelet-derived growth factor receptor beta, sequence (P09619 whole entry): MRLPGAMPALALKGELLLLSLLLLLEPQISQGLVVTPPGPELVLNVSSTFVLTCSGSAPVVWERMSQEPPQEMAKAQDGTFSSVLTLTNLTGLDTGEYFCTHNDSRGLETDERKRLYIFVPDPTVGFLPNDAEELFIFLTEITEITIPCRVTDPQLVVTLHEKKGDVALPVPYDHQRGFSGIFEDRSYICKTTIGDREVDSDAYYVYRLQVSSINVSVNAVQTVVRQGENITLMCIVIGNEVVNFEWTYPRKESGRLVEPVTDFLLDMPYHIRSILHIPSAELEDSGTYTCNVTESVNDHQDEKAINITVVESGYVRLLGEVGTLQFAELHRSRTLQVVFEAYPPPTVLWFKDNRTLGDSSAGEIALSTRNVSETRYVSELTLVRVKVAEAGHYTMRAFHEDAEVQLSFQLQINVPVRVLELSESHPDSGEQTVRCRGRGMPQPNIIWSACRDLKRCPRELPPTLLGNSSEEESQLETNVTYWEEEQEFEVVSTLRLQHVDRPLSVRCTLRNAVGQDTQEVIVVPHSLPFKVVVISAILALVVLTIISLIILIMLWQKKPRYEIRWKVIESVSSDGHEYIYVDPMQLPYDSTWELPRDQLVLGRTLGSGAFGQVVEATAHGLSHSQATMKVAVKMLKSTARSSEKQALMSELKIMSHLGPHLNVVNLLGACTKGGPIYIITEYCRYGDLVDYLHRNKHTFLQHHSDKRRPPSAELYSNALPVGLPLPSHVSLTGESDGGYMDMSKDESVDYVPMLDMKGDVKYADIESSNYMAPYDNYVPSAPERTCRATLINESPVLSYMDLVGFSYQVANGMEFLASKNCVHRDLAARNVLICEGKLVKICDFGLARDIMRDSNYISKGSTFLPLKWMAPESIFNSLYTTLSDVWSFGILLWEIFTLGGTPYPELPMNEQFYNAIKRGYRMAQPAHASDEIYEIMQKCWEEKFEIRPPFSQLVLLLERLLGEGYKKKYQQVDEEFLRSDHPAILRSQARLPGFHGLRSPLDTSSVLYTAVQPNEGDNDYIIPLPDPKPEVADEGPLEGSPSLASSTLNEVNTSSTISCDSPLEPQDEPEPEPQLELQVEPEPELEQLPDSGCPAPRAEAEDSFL

`COc1cc(O)c2c(c1)/C=C/CCCC(=O)C[C@H](Br)C[C@H](C)OC2=O` was tested, and the IC50 [1] was over 100 µM, the IC50 [2] was 2.8 µM and the IC50 [3] was over 100 µM. The IC50 (Jurkat [4]) was 11.7 µM and the IC50 (Jurkat [5]) was 9.7 µM.
`COc1cc(O)c2c(c1)/C=C/CCCC(=O)C[C@H](Cl)C[C@H](C)OC2=O` gave an IC50 [2] of over 100 µM, an IC50 [6] of over 100 µM and an IC50 (Jurkat [4]) of 10.9 µM. It also gave an IC50 (Jurkat [5]) of 9.2 µM.
With `COc1cc(O)c2c(c1)/C=C\CCCC(=O)C[C@H](Br)C[C@H](C)OC2=O` the IC50 [2] was 81 µM, the IC50 [3] was 24 µM and the IC50 (Jurkat [4]) was 6.1 µM. The IC50 (Jurkat [5]) was 7.5 µM.
With `COc1cc(O)c2c(c1)/C=C/CCCC(O)C[C@H](Cl)C[C@H](C)OC2=O` (some centres not stated) the Activity (HUVEC [7]) was “Active” and the Activity (HUVEC [8]) was “Active”.
`COc1cc(O)c2c(c1)CCCCCC(=O)C[C@H](Br)C[C@H](C)OC2=O` gave an IC50 [2] of 11 µM, an IC50 [9] of over 100 µM and an IC50 [3] of 4.3 µM. The IC50 (Jurkat [4]) was 11.4 µM and the IC50 (Jurkat [5]) was 9.7 µM.
In the case of `COc1cc(O)c2c(c1)/C=C/CCCC(=O)/C=C/C[C@H](C)OC2=O`, the IC50 [10] is reported as 0.027 µM, the IC50 [1] is reported as 9.2 µM and the IC50 [2] is reported as 1.3 µM. It also gave an IC50 [11] of over 100 µM, an IC50 [12] of over 100 µM and an IC50 [9] of 51 µM. The IC50 [13] was 0.33 µM, the IC50 [6] was 1.4 µM and the IC50 [14] was over 100 µM. It also gave an IC50 [15] of over 100 µM, an IC50 [3] of 1 µM and an IC50 [16] of 22 µM. The IC50 (Jurkat [4]) was 11 µM and the IC50 (Jurkat [5]) was 8.9 µM.
In the case of `COc1cc(O)c2c(c1)CCCCCC(=O)C[C@H](Cl)C[C@H](C)OC2=O`, the IC50 [2] is reported as 47 µM, the IC50 [3] is reported as 93 µM and the IC50 (Jurkat [4]) is reported as 10.6 µM. The IC50 (Jurkat [5]) was 8.4 µM.
For `COc1cc(O)c2c(c1)CCCCCC(=O)/C=C\C[C@H](C)OC2=O`, the IC50 [10] was 0.44 µM, the IC50 [2] was 4.1 µM and the IC50 [9] was over 100 µM. The IC50 [13] was 0.85 µM, the IC50 [6] was 1.2 µM and the IC50 [3] was 0.54 µM. It also gave an IC50 [16] of 17 µM, an IC50 (Jurkat [4]) of 26 µM and an IC50 (Jurkat [5]) of 11 µM.
`COc1cc(O)c2c(c1)/C=C/C[C@@H](O)[C@H](O)C(=O)/C=C\C[C@H](C)OC2=O` showed an IC50 [10] of 0.00024 µM, an IC50 [2] of 0.0096 µM and an IC50 [11] of 1.4 µM. The IC50 [17] was over 100 µM, the IC50 [12] was 1.3 µM and the IC50 [9] was 0.012 µM. It also gave an IC50 [13] of 0.0049 µM, an IC50 [6] of 0.0005 µM and an IC50 [14] of 1.9 µM. The IC50 [15] was 18 µM, the IC50 [3] was 0.00049 µM and the IC50 [16] was 0.002 µM. It also gave an IC50 (Jurkat [4]) of 7 µM and an IC50 (Jurkat [5]) of 5.5 µM.
`COc1cc(O)c2c(c1)/C=C\CCCC(=O)/C=C/C[C@H](C)OC2=O` gave an IC50 [10] of 0.45 µM, an IC50 [1] of over 100 µM and an IC50 [2] of 1.4 µM. For the same compound, the IC50 [9] was 15 µM, the IC50 [13] was 0.59 µM and the IC50 [6] was 1.6 µM. It also gave an IC50 [3] of 2.3 µM, an IC50 [16] of over 100 µM and an IC50 (Jurkat [4]) of 19.5 µM. The IC50 (Jurkat [5]) was 15.4 µM.
`COc1cc(O)c2c(c1)CCCCCC(=O)/C=C/C[C@H](C)OC2=O` was tested, and the IC50 [10] was 0.089 µM, the IC50 [2] was 1.3 µM and the IC50 [11] was over 100 µM. The IC50 [12] was over 100 µM, the IC50 [9] was 33 µM and the IC50 [13] was 0.33 µM. It also gave an IC50 [6] of 0.72 µM, an IC50 [14] of over 100 µM and an IC50 [3] of 0.31 µM. For the same compound, the IC50 [16] was 12 µM, the IC50 (Jurkat [4]) was 13 µM and the IC50 (Jurkat [5]) was 9.7 µM. The Activity (HUVEC [18]) was “Active” and the Activity (HUVEC [19]) was “Active”.
For `COc1cc(O)c2c(c1)CCCCCC(=O)CCC[C@H](C)OC2=O`, the Activity (HUVEC [20]) was “inactive” and the Activity (HUVEC [21]) was “inactive”.
`COc1cc(O)c2c(c1)/C=C\CCCC(=O)C[C@H](Cl)C[C@H](C)OC2=O` was tested, and the IC50 [2] was 100 µM, the IC50 [6] was over 100 µM and the IC50 [3] was 82 µM. It also gave an IC50 (Jurkat [4]) of 9.5 µM and an IC50 (Jurkat [5]) of 8.8 µM.

— ChEMBL document CHEMBL1667852, “Isosteric replacement of the Z-enone with haloethyl ketone and E-enone in a resorcylic acid lactone series and biological evaluation” (Bioorg Med Chem Lett, 2011)
